The target of series [1] is homogeneous mouse kidney ODC. The arrangement: method as in PMID 3861182. The following applies: competitive; read-out: Ki, competitive inhibitor of mouse kidney ODC; cited from earlier work.
For series [2] the following is noted: no reference printed for this property; cited from earlier work.
Series [3] concerns the target homogeneous bovine brain spermidine synthase. The arrangement: method as in PMID 3861182. Conditions: competitive; read-out: Ki, competitive inhibitor of bovine brain spermidine synthase; cited from earlier work.
In series [4] the test system is polyamine levels in Kelly neuroblastoma cells. Kind of series: Polyamine analysis (HPLC of dansylated polyamines). The format is cell-based. The following applies: 500 μM inhibitor; for Kelly Treated Neuroblastoma Cells (Total Spm): Control = 2.57+0.47; for Kelly Treated Neuroblastoma Cells (Spd): Control = 8.52+1.63; for Kelly Treated Neuroblastoma Cells (Total Put): Control = 9.71+1.31; for Kelly Treated Neuroblastoma Cells (Total PA): Control = 20.81 +2.67; for polyamine levels relative to control (in words) / putrescine level (in words): Figure 6B. How it is done:
Polyamines from Kelly neuroblastoma cells treated with 500 μM inhibitors were isolated, dansylated, and analyzed by HPLC. Briefly, polyamines were extracted and protonated in perchloric acid/sodium chloride buffer. To 100 μL of sample, 4.5 nmol of 1,7 diaminoheptane internal standard and 200 μL of 1 M sodium carbonate was added prior to dansylation with 400 μL of 5 mg/mL dansyl chloride (Sigma-Aldrich) for 60 min at 65 °C. One hundred μL of 1 M proline was then added to each reaction and incubated for 20 min at 65 °C. Polyamines were extracted from the mixture using methylene chloride. The methylene chloride was allowed to evaporate, the samples were resuspended in methanol and run through a C18 cleanup column. Samples were then analyzed using a Thermo Scientific/Dionex Ultimate 3000 HPLC, using a Syncronis C18 column (250 × 4.6 mm, […] pore size), and containing a fluorescence detector. The dansylated polyamine peaks were visualized by excitation at 340 nm and emission at 515 nm. The buffers used for elution of the polyamines were as follows: buffer A: 10 mM sodium heptanesulfonate/10% acetontrile at pH 3.4. Buffer B: 100% acetonitrile. The flow rate was 0.7 mL per minute. The column was equilibrated with 55% buffer B/45% buffer A prior to injection of the sample. Upon injection of the sample, elution of polyamines occurs in an isocratic solution of 55% buffer B/45% buffer A for 28 min. The solution was then slowly ramped to 95% buffer B/5% buffer A for 20 min. This gradient was held for 27 min to elute the spermine peak. The solution was then quickly dropped back to 55% buffer B/45% buffer A to re-equilibrate the column prior to the next sample being injected. Using the relative molar response derived from N-dansylated PA and 1,7 diaminoheptane standards, the amount of N-dansylated polyamines was calculated and normalized to total sample protein.

Another series concerns human ODC. The arrangement: method as in earlier work. The following applies: 49−51; cited from earlier work.
Series [5] concerns the target homogeneous liver adenosylmethionine decarboxylase. Set-up: method as in PMID 3861182. Conditions: irreversible; read-out: Ki, irreversible inhibitor of liver adenosylmethionine decarboxylase; cited from earlier work.
The conditions of series [6]: cited from earlier work.

Counter-ions that a name gives are not always drawn.

As for `NCCCON` [APA, 3-(Aminooxy)propan-1-Amine Dihydrochloride], the Ki in series [1] was 3.2 nM. The “water solubility (in words)” value in series [2] is listed as “highly water-soluble”. In addition, in series [3], the Ki is 2300 nM. Besides, in series [4], the “Kelly Treated Neuroblastoma Cells (Total Spm)” value is recorded as 5.09+1.39, the “Kelly Treated Neuroblastoma Cells (Spd)” value is 7.14+6.27, the “Kelly Treated Neuroblastoma Cells (Total Put)” value is given as 0 and the “Kelly Treated Neuroblastoma Cells (Total PA)” value is on record as 12.2+7.59. Besides, in series [4] (Kelly neuroblastoma cells), the “polyamine levels relative to control (in words)” value is listed as “reduced polyamine levels” and the “putrescine level (in words)” value was “undetected”. In the series on human ODC, the “IC50 against human ODC (in words)” value is “low nM range” and the “potency against human ODC, times higher than that of DFMO” value is recorded as 10,000 times. Moreover, the Ki in series [5] was 50000 nM. In series [6], the “pKa of hydroxyl amine” value is given as ~5.9.

In the case of `Cl.Cl.NOCC1(F)CCNC1` (centres unmarked) [Compound 11, 3-[(aminooxy)methyl]-3-fluoropyrrolidine di-formic acid], in series [4], the “Kelly Treated Neuroblastoma Cells (Total Spm)” value is reported as 2.74+0.46, the “Kelly Treated Neuroblastoma Cells (Spd)” value is 1.81+0.73, the “Kelly Treated Neuroblastoma Cells (Total Put)” value is on record as 0 and the “Kelly Treated Neuroblastoma Cells (Total PA)” value is given as 4.55+1.14. Moreover, in series [4] (Kelly neuroblastoma cells), the “polyamine levels relative to control (in words)” value is recorded as “reduced polyamine levels” and the “putrescine level (in words)” value is listed as “undetected”. Besides, in series [4] (Kelly neuroblastoma cells, relative to APA), the “spermidine and spermine levels (in words)” value is on record as “greatest reductions”.

Values taken from paper PMC11912471 (Journal of Medicinal Chemistry, 2025).
